In patent US20030199431A1, “Modified peptide nucleic acid (PNA) molecules” (priority 1999, published 2003):
Where two headings read alike, the source gives them in different places.

Legend:
test culture = type: cell-based
E. coli K12 = type: cell-based, Escherichia coli
Method: To test the effect of a Peptide without a PNA, peptide no. 2339, H-KFFKFFKFF-OH (SEQ ID NO: 1), was added to E. coli K12 in 10% and 100% medium (Mueller-Hinton broth).

H-KFFKFFKFF-OH [Peptide 2339]
Bacterial growth inhibition (test culture): − (key: +: Total inhibition of bacterial growth.; (+): Significantly extended lagphase, (more than five times); −: Lagphase extended less than five times;) | Bacterial growth inhibition (E. coli K12; Peptide 100 nM, 4.0 × 10^3 bacteria/ml, 10% medium): − (Lagphase extended less than five times;) | Bacterial growth inhibition (E. coli K12; Peptide 100 nM, 4.0 × 10^4 bacteria/ml, 10% medium): − (Lagphase extended less than five times;) | Bacterial growth inhibition (E. coli K12; Peptide 100 nM, 7.9 × 10^3 bacteria/ml, 10% medium): − (Lagphase extended less than five times;) | Bacterial growth inhibition (E. coli K12; Peptide 100 nM, 16 bacteria/ml, 100% medium): − (Lagphase extended less than five times) | Bacterial growth inhibition (E. coli K12; Peptide 100 nM, 160 bacteria/ml, 100% medium): − (Lagphase extended less than five times) | Bacterial growth inhibition (E. coli K12; Peptide 100 nM, 1600 bacteria/ml, 100% medium): − (Lagphase extended less than five times) | Bacterial growth inhibition (E. coli K12; Peptide 300 nM, 4.0 × 10^3 bacteria/ml, 10% medium): − (Lagphase extended less than five times;) | Bacterial growth inhibition (E. coli K12; Peptide 300 nM, 4.0 × 10^4 bacteria/ml, 10% medium): − (Lagphase extended less than five times;) | Bacterial growth inhibition (E. coli K12; Peptide 300 nM, 7.9 × 10^3 bacteria/ml, 10% medium): − (Lagphase extended less than five times;) | Bacterial growth inhibition (E. coli K12; Peptide 300 nM, 16 bacteria/ml, 100% medium): − (Lagphase extended less than five times) | Bacterial growth inhibition (E. coli K12; Peptide 300 nM, 160 bacteria/ml, 100% medium): − (Lagphase extended less than five times) | Bacterial growth inhibition (E. coli K12; Peptide 300 nM, 1600 bacteria/ml, 100% medium): − (Lagphase extended less than five times) | Bacterial growth inhibition (E. coli K12; Peptide 500 nM, 4.0 × 10^3 bacteria/ml, 10% medium): − (Lagphase extended less than five times;) | Bacterial growth inhibition (E. coli K12; Peptide 500 nM, 4.0 × 10^4 bacteria/ml, 10% medium): − (Lagphase extended less than five times;) | Bacterial growth inhibition (E. coli K12; Peptide 500 nM, 7.9 × 10^3 bacteria/ml, 10% medium): − (Lagphase extended less than five times;) | Bacterial growth inhibition (E. coli K12; Peptide 500 nM, 16 bacteria/ml, 100% medium): − (Lagphase extended less than five times) | Bacterial growth inhibition (E. coli K12; Peptide 500 nM, 160 bacteria/ml, 100% medium): − (Lagphase extended less than five times) | Bacterial growth inhibition (E. coli K12; Peptide 500 nM, 1600 bacteria/ml, 100% medium): − (Lagphase extended less than five times) | Bacterial growth inhibition (E. coli K12; Peptide 700 nM, 4.0 × 10^3 bacteria/ml, 10% medium): − (Lagphase extended less than five times;) | Bacterial growth inhibition (E. coli K12; Peptide 700 nM, 4.0 × 10^4 bacteria/ml, 10% medium): − (Lagphase extended less than five times;) | Bacterial growth inhibition (E. coli K12; Peptide 700 nM, 7.9 × 10^3 bacteria/ml, 10% medium): − (Lagphase extended less than five times;) | Bacterial growth inhibition (E. coli K12; Peptide 700 nM, 16 bacteria/ml, 100% medium): − (Lagphase extended less than five times) | Bacterial growth inhibition (E. coli K12; Peptide 700 nM, 160 bacteria/ml, 100% medium): − (Lagphase extended less than five times) | Bacterial growth inhibition (E. coli K12; Peptide 700 nM, 1600 bacteria/ml, 100% medium): − (Lagphase extended less than five times) | Bacterial growth inhibition (E. coli K12; Peptide 900 nM, 4.0 × 10^3 bacteria/ml, 10% medium): − (Lagphase extended less than five times;) | Bacterial growth inhibition (E. coli K12; Peptide 900 nM, 4.0 × 10^4 bacteria/ml, 10% medium): − (Lagphase extended less than five times;) | Bacterial growth inhibition (E. coli K12; Peptide 900 nM, 7.9 × 10^3 bacteria/ml, 10% medium): − (Lagphase extended less than five times;) | Bacterial growth inhibition (E. coli K12; Peptide 900 nM, 16 bacteria/ml, 100% medium): − (Lagphase extended less than five times) | Bacterial growth inhibition (E. coli K12; Peptide 900 nM, 160 bacteria/ml, 100% medium): − (Lagphase extended less than five times) | Bacterial growth inhibition (E. coli K12; Peptide 900 nM, 1600 bacteria/ml, 100% medium): − (Lagphase extended less than five times) | Bacterial growth inhibition (E. coli K12; Peptide 1100 nM, 4.0 × 10^3 bacteria/ml, 10% medium): − (Lagphase extended less than five times;) | Bacterial growth inhibition (E. coli K12; Peptide 1100 nM, 4.0 × 10^4 bacteria/ml, 10% medium): − (Lagphase extended less than five times;) | Bacterial growth inhibition (E. coli K12; Peptide 1100 nM, 7.9 × 10^3 bacteria/ml, 10% medium): − (Lagphase extended less than five times;) | Bacterial growth inhibition (E. coli K12; Peptide 1100 nM, 16 bacteria/ml, 100% medium): − (Lagphase extended less than five times) | Bacterial growth inhibition (E. coli K12; Peptide 1100 nM, 160 bacteria/ml, 100% medium): − (Lagphase extended less than five times) | Bacterial growth inhibition (E. coli K12; Peptide 1100 nM, 1600 bacteria/ml, 100% medium): − (Lagphase extended less than five times) | Bacterial growth inhibition (E. coli K12; Peptide 1300 nM, 4.0 × 10^3 bacteria/ml, 10% medium): − (Lagphase extended less than five times;) | Bacterial growth inhibition (E. coli K12; Peptide 1300 nM, 4.0 × 10^4 bacteria/ml, 10% medium): − (Lagphase extended less than five times;) | Bacterial growth inhibition (E. coli K12; Peptide 1300 nM, 7.9 × 10^3 bacteria/ml, 10% medium): − (Lagphase extended less than five times;) | Bacterial growth inhibition (E. coli K12; Peptide 1300 nM, 16 bacteria/ml, 100% medium): − (Lagphase extended less than five times) | Bacterial growth inhibition (E. coli K12; Peptide 1300 nM, 160 bacteria/ml, 100% medium): − (Lagphase extended less than five times) | Bacterial growth inhibition (E. coli K12; Peptide 1300 nM, 1600 bacteria/ml, 100% medium): − (Lagphase extended less than five times) | Bacterial growth inhibition (E. coli K12; Peptide 1500 nM, 4.0 × 10^3 bacteria/ml, 10% medium): − (Lagphase extended less than five times;) | Bacterial growth inhibition (E. coli K12; Peptide 1500 nM, 4.0 × 10^4 bacteria/ml, 10% medium): − (Lagphase extended less than five times;) | Bacterial growth inhibition (E. coli K12; Peptide 1500 nM, 7.9 × 10^3 bacteria/ml, 10% medium): − (Lagphase extended less than five times;) | Bacterial growth inhibition (E. coli K12; Peptide 1500 nM, 16 bacteria/ml, 100% medium): − (Lagphase extended less than five times) | Bacterial growth inhibition (E. coli K12; Peptide 1500 nM, 160 bacteria/ml, 100% medium): − (Lagphase extended less than five times) | Bacterial growth inhibition (E. coli K12; Peptide 1500 nM, 1600 bacteria/ml, 100% medium): − (Lagphase extended less than five times) | Bacterial growth inhibition (E. coli K12; Peptide 2500 nM, 4.0 × 10^3 bacteria/ml, 10% medium): − (Lagphase extended less than five times;) | Bacterial growth inhibition (E. coli K12; Peptide 2500 nM, 4.0 × 10^4 bacteria/ml, 10% medium): − (Lagphase extended less than five times;) | Bacterial growth inhibition (E. coli K12; Peptide 2500 nM, 7.9 × 10^3 bacteria/ml, 10% medium): − (Lagphase extended less than five times;) | Bacterial growth inhibition (E. coli K12; Peptide 2500 nM, 16 bacteria/ml, 100% medium): − (Lagphase extended less than five times) | Bacterial growth inhibition (E. coli K12; Peptide 2500 nM, 160 bacteria/ml, 100% medium): − (Lagphase extended less than five times) | Bacterial growth inhibition (E. coli K12; Peptide 2500 nM, 1600 bacteria/ml, 100% medium): − (Lagphase extended less than five times) | Bacterial growth inhibition (E. coli K12; Peptide 5000 nM, 4.0 × 10^3 bacteria/ml, 10% medium): ((+)) (Lagphase extended less than five times, but still with growth curve effect) | Bacterial growth inhibition (E. coli K12; Peptide 5000 nM, 4.0 × 10^4 bacteria/ml, 10% medium): ((+)) (Lagphase extended less than five times, but still with growth curve effect) | Bacterial growth inhibition (E. coli K12; Peptide 5000 nM, 7.9 × 10^3 bacteria/ml, 10% medium): ((+)) (Lagphase extended less than five times, but still with growth curve effect) | Bacterial growth inhibition (E. coli K12; Peptide 5000 nM, 16 bacteria/ml, 100% medium): − (Lagphase extended less than five times) | Bacterial growth inhibition (E. coli K12; Peptide 5000 nM, 160 bacteria/ml, 100% medium): − (Lagphase extended less than five times) | Bacterial growth inhibition (E. coli K12; Peptide 5000 nM, 1600 bacteria/ml, 100% medium): − (Lagphase extended less than five times) | Bacterial growth inhibition (E. coli K12; Peptide 10000 nM, 4.0 × 10^3 bacteria/ml, 10% medium): ((+)) (Lagphase extended less than five times, but still with growth curve effect) | Bacterial growth inhibition (E. coli K12; Peptide 10000 nM, 4.0 × 10^4 bacteria/ml, 10% medium): ((+)) (Lagphase extended less than five times, but still with growth curve effect) | Bacterial growth inhibition (E. coli K12; Peptide 10000 nM, 7.9 × 10^3 bacteria/ml, 10% medium): ((+)) (Lagphase extended less than five times, but still with growth curve effect) | Bacterial growth inhibition (E. coli K12; Peptide 10000 nM, 16 bacteria/ml, 100% medium): − (Lagphase extended less than five times) | Bacterial growth inhibition (E. coli K12; Peptide 10000 nM, 160 bacteria/ml, 100% medium): − (Lagphase extended less than five times) | Bacterial growth inhibition (E. coli K12; Peptide 10000 nM, 1600 bacteria/ml, 100% medium): − (Lagphase extended less than five times) | Bacterial growth inhibition (E. coli K12; Peptide 15000 nM, 4.0 × 10^3 bacteria/ml, 10% medium): ((+)) (Lagphase extended less than five times, but still with growth curve effect) | Bacterial growth inhibition (E. coli K12; Peptide 15000 nM, 4.0 × 10^4 bacteria/ml, 10% medium): ((+)) (Lagphase extended less than five times, but still with growth curve effect) | Bacterial growth inhibition (E. coli K12; Peptide 15000 nM, 7.9 × 10^3 bacteria/ml, 10% medium): ((+)) (Lagphase extended less than five times, but still with growth curve effect) | Bacterial growth inhibition (E. coli K12; Peptide 15000 nM, 16 bacteria/ml, 100% medium): − (Lagphase extended less than five times) | Bacterial growth inhibition (E. coli K12; Peptide 15000 nM, 160 bacteria/ml, 100% medium): − (Lagphase extended less than five times) | Bacterial growth inhibition (E. coli K12; Peptide 15000 nM, 1600 bacteria/ml, 100% medium): − (Lagphase extended less than five times) | Bacterial growth inhibition (E. coli K12; Peptide 20000 nM, 4.0 × 10^3 bacteria/ml, 10% medium): + | Bacterial growth inhibition (E. coli K12; Peptide 20000 nM, 4.0 × 10^4 bacteria/ml, 10% medium): ((+)) (Lagphase extended less than five times, but still with growth curve effect) | Bacterial growth inhibition (E. coli K12; Peptide 20000 nM, 7.9 × 10^3 bacteria/ml, 10% medium): + | Bacterial growth inhibition (E. coli K12; Peptide 20000 nM, 16 bacteria/ml, 100% medium): (+) (Significantly extended lagphase, (more than five times)) | Bacterial growth inhibition (E. coli K12; Peptide 20000 nM, 160 bacteria/ml, 100% medium): − (Lagphase extended less than five times) | Bacterial growth inhibition (E. coli K12; Peptide 20000 nM, 1600 bacteria/ml, 100% medium): − (Lagphase extended less than five times) | Peptide concentration giving total inhibition of growth (E. coli K12; cultures with 7.9×10^3 cells/ml, peptide without PNA): at least 20,000 nM | Peptide concentration at which minimal signs of growth inhibition were detected (E. coli K12; peptide without PNA): ≥ 5,000 nM
